# Test results taken from PubChem BioAssay (NCI).
#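 The compound was tested at five concentrations on cells cultured in 96-well plates, with a 48-hour exposure period. TGI: concentration producing complete growth inhibition.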
# Columns and labels:
# Assay in all cases: growth of human tumour cells (NCI), 48 h
# [1] = system: DU-145 prostate
# [2] = system: SNB-19 CNS
# [3] = system: SF-539 CNS
# [4] = system: LOX IMVI melanoma
# [5] = system: MDA-MB-435
# [6] = system: PC-3 prostate
# [7] = system: UACC-62 melanoma
# [8] = system: EKVX NSCLC
# [9] = system: T-47D breast
# [10] = system: IGROV1 ovarian
# [11] = system: NCI-H522 lung
# [12] = system: SK-MEL-2 melanoma
# [13] = system: U251 CNS
# [14] = system: RXF 393 renal
# [15] = system: MCF7 breast
# [16] = system: 786-0 renal
# [17] = system: MOLT-4 leukemia
# [18] = system: HS 578T breast
# [19] = system: TK-10 renal
# [20] = system: CCRF-CEM leukemia
# [21] = system: NCI-H23 lung
# [22] = system: HT29 colon
# [23] = system: M14 melanoma
# [24] = system: HCT-15 colon
# [25] = system: UO-31 renal
# [26] = system: SW-620 colon
# [27] = system: NCI/ADR-RES ovarian
# [28] = system: MDA-MB-231 breast
# [29] = system: MALME-3M melanoma
# [30] = system: HOP-92 NSCLC
# [31] = system: MDA-N
# [32] = system: KM12 colon
# [33] = system: K-562 leukemia
# [34] = system: SF-295 CNS
# [35] = system: SK-MEL-5 melanoma
# [36] = system: NCI-H226 lung
# [37] = system: OVCAR-8 ovarian
# [38] = system: NCI-H460 lung
# [39] = system: SNB-75 CNS
# [40] = system: COLO 205 colon
# [41] = system: BT-549 breast
# [42] = system: SK-MEL-28 melanoma
# [43] = system: SN12C renal
# [44] = system: OVCAR-3 ovarian
# [45] = system: SR leukemia
# [46] = system: SF-268 CNS
# [47] = system: HCT-116 colon
# [48] = system: ACHN renal
# [49] = system: A549 NSCLC
# [50] = system: UACC-257 melanoma
# [51] = system: HCC-2998 colon
# [52] = system: OVCAR-5 ovarian
# [53] = system: OVCAR-4 ovarian
# [54] = system: CAKI-1 renal
# [55] = system: RPMI-8226 leukemia
# [56] = system: A498 renal
# [57] = system: SK-OV-3 ovarian
# [58] = system: HOP-62 NSCLC
# [59] = system: HL-60(TB) leukemia
structure (smiles),measurement,setting,value
Nn1c(SCC(=O)O)nc2ccccc2c1=O,TGI,[1],> 100 µM
same,TGI,[2],> 100 µM
same,TGI,[3],> 100 µM
same,TGI,[4],> 100 µM
same,TGI,[5],> 100 µM
same,TGI,[6],> 100 µM
same,TGI,[7],> 100 µM
same,TGI,[8],> 100 µM
same,TGI,[9],> 100 µM
same,TGI,[10],> 100 µM
same,TGI,[11],> 100 µM
same,TGI,[12],> 100 µM
same,TGI,[13],> 100 µM
same,TGI,[14],> 100 µM
same,TGI,[15],> 100 µM
same,TGI,[16],> 100 µM
same,TGI,[17],> 100 µM
same,TGI,[18],> 100 µM
same,TGI,[19],> 100 µM
same,TGI,[20],> 100 µM
same,TGI,[21],> 100 µM
same,TGI,[22],> 100 µM
same,TGI,[23],> 100 µM
same,TGI,[24],> 100 µM
same,TGI,[25],> 100 µM
same,TGI,[26],> 100 µM
same,TGI,[27],> 100 µM
same,TGI,[28],> 100 µM
same,TGI,[29],> 100 µM
same,TGI,[30],> 100 µM
same,TGI,[31],> 100 µM
same,TGI,[32],> 100 µM
same,TGI,[33],> 100 µM
same,TGI,[34],> 100 µM
same,TGI,[35],> 100 µM
same,TGI,[36],> 100 µM
same,TGI,[37],> 100 µM
same,TGI,[38],> 100 µM
same,TGI,[39],> 100 µM
same,TGI,[40],> 100 µM
same,TGI,[41],> 100 µM
same,TGI,[42],> 100 µM
same,TGI,[43],> 100 µM
same,TGI,[44],> 100 µM
same,TGI,[45],> 100 µM
same,TGI,[46],> 100 µM
same,TGI,[47],> 100 µM
same,TGI,[48],> 100 µM
same,TGI,[49],> 100 µM
same,TGI,[50],> 100 µM
same,TGI,[51],> 100 µM
same,TGI,[52],> 100 µM
same,TGI,[53],> 100 µM
same,TGI,[54],> 100 µM
same,TGI,[55],> 100 µM
same,TGI,[56],> 100 µM
Cc1cccc2nc3cccc(C(=O)NCCC[N+](C)(CCCNC(=O)c4cccc5nc6cccc(C)c6nc45)Cc4ccc([N+](=O)[O-])n4C)c3nc12,TGI,[1],> 100 µM
same,TGI,[2],> 100 µM
same,TGI,[4],> 100 µM
same,TGI,[5],> 100 µM
same,TGI,[6],> 100 µM
same,TGI,[7],> 100 µM
same,TGI,[8],> 100 µM
same,TGI,[57],> 100 µM
same,TGI,[9],> 100 µM
same,TGI,[10],> 100 µM
same,TGI,[11],> 100 µM
same,TGI,[12],> 100 µM
same,TGI,[13],> 100 µM
same,TGI,[14],> 100 µM
same,TGI,[15],> 100 µM
same,TGI,[16],> 100 µM
same,TGI,[17],26.2 µM
same,TGI,[18],> 100 µM
same,TGI,[19],> 100 µM
same,TGI,[20],> 26.9 µM
same,TGI,[21],> 100 µM
same,TGI,[22],> 100 µM
same,TGI,[23],> 100 µM
same,TGI,[24],> 100 µM
same,TGI,[25],> 100 µM
same,TGI,[26],> 100 µM
same,TGI,[27],> 100 µM
same,TGI,[28],> 100 µM
same,TGI,[29],> 100 µM
same,TGI,[30],> 100 µM
same,TGI,[31],> 100 µM
same,TGI,[32],> 100 µM
same,TGI,[33],> 100 µM
same,TGI,[34],> 100 µM
same,TGI,[35],> 100 µM
same,TGI,[36],> 100 µM
same,TGI,[37],> 100 µM
same,TGI,[38],> 100 µM
same,TGI,[39],> 100 µM
same,TGI,[40],> 100 µM
same,TGI,[41],> 100 µM
same,TGI,[42],> 100 µM
same,TGI,[43],> 100 µM
same,TGI,[44],> 100 µM
same,TGI,[45],> 100 µM
same,TGI,[46],> 100 µM
same,TGI,[47],> 100 µM
same,TGI,[58],> 100 µM
same,TGI,[48],> 100 µM
same,TGI,[49],> 100 µM
same,TGI,[50],> 100 µM
same,TGI,[51],> 100 µM
same,TGI,[52],> 100 µM
same,TGI,[53],> 100 µM
same,TGI,[54],> 100 µM
same,TGI,[55],> 100 µM
same,TGI,[56],> 100 µM
Clc1c2ncccc2cc2n[nH]nc12,TGI,[1],> 100 µM
same,TGI,[2],> 100 µM
same,TGI,[3],> 100 µM
same,TGI,[5],> 100 µM
same,TGI,[6],> 100 µM
same,TGI,[7],> 100 µM
same,TGI,[8],> 100 µM
same,TGI,[57],> 100 µM
same,TGI,[9],> 100 µM
same,TGI,[10],> 100 µM
same,TGI,[11],> 100 µM
same,TGI,[12],> 100 µM
same,TGI,[13],> 100 µM
same,TGI,[14],> 100 µM
same,TGI,[15],> 100 µM
same,TGI,[16],> 100 µM
same,TGI,[17],77.1 µM
same,TGI,[18],> 100 µM
same,TGI,[19],> 100 µM
same,TGI,[20],> 100 µM
same,TGI,[21],> 100 µM
same,TGI,[22],> 100 µM
same,TGI,[23],> 100 µM
same,TGI,[24],> 100 µM
same,TGI,[25],> 100 µM
same,TGI,[26],> 100 µM
same,TGI,[27],> 100 µM
same,TGI,[28],> 100 µM
same,TGI,[29],> 100 µM
same,TGI,[30],> 100 µM
same,TGI,[31],> 100 µM
same,TGI,[32],> 100 µM
same,TGI,[33],> 100 µM
same,TGI,[34],> 100 µM
same,TGI,[35],> 100 µM
same,TGI,[36],> 100 µM
same,TGI,[37],> 100 µM
same,TGI,[38],> 100 µM
same,TGI,[39],> 100 µM
same,TGI,[40],> 100 µM
same,TGI,[41],> 100 µM
same,TGI,[59],> 100 µM
same,TGI,[42],> 100 µM
same,TGI,[43],> 100 µM
same,TGI,[44],> 100 µM
same,TGI,[45],> 100 µM
same,TGI,[46],> 100 µM
same,TGI,[47],> 100 µM
same,TGI,[58],> 100 µM
same,TGI,[48],> 100 µM
same,TGI,[49],> 100 µM
same,TGI,[50],> 100 µM
same,TGI,[51],> 100 µM
same,TGI,[52],> 100 µM
same,TGI,[53],> 100 µM
same,TGI,[54],> 100 µM
same,TGI,[55],> 100 µM
same,TGI,[56],> 100 µM
